Results published in paper PMC6912803, “Sideritis Perfoliata (Subsp. Perfoliata) Nutritive Value and Its Potential Medicinal Properties” (Antioxidants, 2019).

Tests used:
mushroom tyrosinase = system: T1, mushroom tyrosinase; assay: L-tyrosine oxidation, absorbance at […] nm over […] min; format: biochemical; set-up: reference not given here; settings: 2 mM L-tyrosine stock (110 µL added), potassium phosphate pH 6.5, room temperature, 5 min preincubation
T1 construct: gene PPO3; native commercial mushroom tyrosinase (Sigma-Aldrich), isoenzyme mixture

[1] = molecular target: T2, Porcine pancreatic elastase (PPE) (Sus scrofa, UniProt P00772); assay: N-succinyl-(Ala)3-p-nitroanilide hydrolysis, absorbance at […] nm; format: biochemical; settings: read-out: Positive Control MIC/IC50 ± SD (μg/mL) (converted)
T2 construct: gene CELA1; mature active protease
T2 sequence (P00772 27-266): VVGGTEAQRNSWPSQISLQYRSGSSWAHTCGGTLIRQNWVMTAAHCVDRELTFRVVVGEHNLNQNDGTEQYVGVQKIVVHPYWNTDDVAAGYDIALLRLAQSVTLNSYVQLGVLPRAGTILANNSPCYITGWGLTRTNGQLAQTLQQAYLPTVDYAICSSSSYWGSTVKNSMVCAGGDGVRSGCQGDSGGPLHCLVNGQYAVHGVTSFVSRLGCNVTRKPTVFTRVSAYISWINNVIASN

Positive Control MIC/IC50 ± SD (mushroom tyrosinase) [µg/mL]	IC50 [1] [µM]	SMILES
2.84 ± 0.23		O=c1cc(CO)occ1O [kojic acid]
	40.4	C[C@H]1[C@H](C)CC[C@]2(C(=O)O)CC[C@]3(C)C(=CC[C@@H]4[C@@]5(C)CC[C@H](O)C(C)(C)[C@@H]5CC[C@]43C)[C@H]12 [ursolic acid]
